We go through 17 compounds from PubChem BioAssay (NCI).

Molecules are shown by their SMILES.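 1) Cells in 96-well plates. 2) Compound, 48 h, 5 concentrations. 3) Linear interpolation between surrounding doses. 4) Unreached endpoint = highest concentration. GI50 = concentration required for 50% inhibition of growth. Definition used: TGI = concentration required for complete inhibition of growth.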

Holding throughout (test): inhibition of tumour cell growth, NCI panel, 48 h
Assay [1] concerns OVCAR-8 ovarian.
Assay [2] deals with DU-145 prostate.
The test system of assay [3] is MDA-MB-231 breast.
For assay [4], the system named is HOP-92 NSCLC.
The subject of assay [5] is CAKI-1 renal.
Assay [6] has as its system T-47D breast.
In assay [7] the test system is NCI-H23 lung.
The subject of assay [8] is BT-549 breast.
Assay [9] relates to NCI-H460 lung.
Assay [10] deals with ACHN renal.

For `Cn1c(=O)c2[nH]c(Nc3cccc(Cl)c3)nc2n(C)c1=O`, the TGI in assay [1] was over 10 µM; in assay [2] it was over 10 µM; in [3], over 10 µM; in assay [4], 6.56 µM; in assay [5], over 10 µM; in assay [6] it was 8.72 µM. In [7], this compound yielded a TGI of over 10 µM.

Regarding `COc1ccccc1Cn1c2c(c3cc(O)ccc31)C(=O)c1ccccc1C2=O`, the TGI was over 100 µM in assay [8]; 61.9 µM in assay [1]; over 100 µM in [2]; 38.2 µM in [3]; over 100 µM in assay [9]; 69.7 µM in [5]. In addition, in assay [7], the TGI is 95.8 µM.

On to `CCC1(c2ccc(OC)c(OC)c2)CCN2C(=O)C(O)CC21` (configuration not stated), for which the TGI in [8], in assay [2], in assay [10], in [3], in assay [9] and in assay [5] was over 100 µM throughout. The TGI in [6] and in assay [7] was over 100 µM each time.

`CC(=O)Nc1ccc2c(c1)nc1c3ccccc3ccn21`: the TGI in assay [8], in assay [1], in assay [2], in assay [10], in assay [3] and in [4] was over 100 µM throughout. Moreover, the TGI in assay [9], in assay [5], in [6] and in assay [7] was over 100 µM in each case.

With `CCCC/C=C1\CCC(CN2CCCC2)C1=O` (configuration not stated), the TGI in [1] was determined as 28.5 µM; in [10], 19.2 µM; in assay [4] it was 31.1 µM; in [9], 38.2 µM; in assay [7] it was 32.1 µM.

For `Oc1ccc(C[C@@H]2CN[C@H](Cc3ccc(O)c(Br)c3)CN2)cc1`, the TGI in assay [8], in [1], in assay [2], in assay [10], in [3] and in assay [4] was over 100 µM in each case. In addition, the TGI in assay [5], in assay [6] and in assay [7] was over 100 µM each time.

Turning to `CCC(C)C(NC(=O)C(CCCC[N+](=N)N)NC(=O)C(CCCC[N+](=N)N)NC(=O)c1ccc(OC)cc1)C(=O)NC(CCCC[N+](=N)N)C(=O)N1CCCC1C(=O)NC(CCCCN)C(=O)NC(CC(C)C)C(N)=O` (configuration not stated), the TGI in assay [8], in assay [1], in assay [2], in [10], in assay [3] and in assay [9] was over 100 µM throughout. Besides, the TGI in [5], in assay [6] and in [7] was over 100 µM each time.

With `O=c1cccc2n1CC1CNCC2C1` (configuration not stated), the TGI in [8], in assay [1], in assay [2], in [10], in assay [3] and in assay [4] was over 100 µM each time. For the same compound, the TGI in [9], in [5] and in assay [7] was over 100 µM in each case.

Regarding `NC(=O)c1ncn(C2OC(CO)C(O)C2O)c1NC(=S)NC(=O)c1ccccc1` (configuration not stated), the TGI in assay [1], in assay [10], in assay [4], in [9], in assay [5] and in [7] was over 100 µM each time.

In the case of `Cc1ccc(S(=O)(=O)N2CCc3cc(O)c([N+](=O)[O-])cc32)cc1`, the TGI in [8], in assay [1], in [2], in [10], in assay [3] and in assay [5] was over 100 µM in each case. Besides, the TGI in [6] and in assay [7] was over 100 µM in each case.

As for `O=C(/C=C/CC(O)(c1ccccc1)c1ccccc1)Nc1ccccc1Cl`, the TGI in [1], in [10], in assay [4], in [9], in assay [5] and in assay [7] was over 100 µM throughout.

On to `O=C1CN(c2ccccc2)C(=O)C1C(=O)Nc1ccc(Cl)c(Cl)c1` (configuration not stated), for which the TGI was found to be 14.8 µM in [10], 14.5 µM in [4] and 20.2 µM in [7].

With `C=CCN(c1cc(OC)c2[nH]c(C(=O)O)c(C)c2c1[N+](=O)[O-])S(C)(=O)=O`, the TGI in assay [8], in [1], in assay [2], in [10], in assay [3] and in [9] was over 100 µM in each case. For the same compound, the TGI in [5], in assay [6] and in assay [7] was over 100 µM throughout.

Take `CC12CCC(=O)[C@@]1(C)CCCC2=O` (some centres not stated): the TGI in assay [8], in assay [1], in assay [2], in [10], in assay [3] and in assay [9] was over 100 µM throughout. The TGI in assay [5], in [6] and in [7] was over 100 µM each time.

On to `CCc1ccc(OCc2ccccc2C(=O)Nc2ccc3nc(C)cc(N)c3c2)cc1`, for which the GI50 in [1] was 1.68 µM; in assay [2], 1.68 µM; in assay [10], 1.73 µM; in assay [3], 0.846 µM; in assay [4] it was 1.16 µM. The TGI in assay [1] came out at 4.61 µM; in assay [2] it was 3.17 µM; in assay [10] it was 3.13 µM; in [3], 2.25 µM; in [4], 2.55 µM.

On to `COc1cccc(Nc2nc3c([nH]2)c(=O)n(C)c(=O)n3C)c1`, for which the TGI in [1], in assay [2], in assay [3], in [4], in [5] and in assay [6] was over 10 µM in each case. Besides, the TGI in assay [7] is over 10 µM.

Regarding `O=c1ccn([C@@H]2C=C(CO)[C@@H](O)[C@H]2O)c(=O)[nH]1`, the TGI in assay [1], in assay [4], in assay [9], in assay [5] and in [7] was over 625 µM throughout.
